Residues, ends and D or L forms follow the SMILES beside them.
Assay: Binding affinity against Protease

Compound: CSCC[C@H](NC(=O)[C@H](CCC(=O)O)NC(=O)[C@H](CC(=O)O)NC(C)=O)C(=O)N[C@@H](CCC(=O)O)C(=O)N[C@@H](CCC(=O)O)C(=O)N[C@@H](CS)C(=O)O [AcAsp-Glu-Met-Glu-Glu-Cys] (Ac-DEMEEC-OH)
- Ki: 600 nM

Reference: BindingDB's records for doi:10.1021/jm990412m (University of Queensland, 2000)
